The target of one data set is purified rat nNOS (Rattus norvegicus, UniProt P29476). Briefly: NO-hemoglobin. The settings on record: for drop in potency with rnNOS relative to 12: compared with 12. It counts as biochemical.
A further data set concerns the target human nNOS (Homo sapiens, UniProt P29475). Briefly: NO-hemoglobin. It counts as biochemical. The settings on record: for drop in potency with hnNOS relative to 12: compared with 12.
The target in another data set is human eNOS (Homo sapiens, UniProt P29474). Briefly: NO-hemoglobin. It counts as biochemical. The conditions noted are these: hn/he compared to lead 9.
The nature of data set [1]: PAMPA-BBB parallel artificial membrane permeability assay. In kind it is in vitro ADME. The conditions noted are these: 17 h, 200 μM, triplicate, in-house conditions. (In PAMPA a lipid-coated filter parts donor from acceptor wells.)

Where a name gives a salt, the structure may show the parent alone.

The record followed here is PMC9574886 (Bioorganic & medicinal chemistry, 2022).

Consider `Cc1cc(N)nc(C#CCN2CC(F)(F)C2)c1` [Compound 17, 6-(3-(3,3-difluoroazetidin-1-yl)prop-1-yn-1-yl)-4-methylpyridin-2-amine dihydrochloride], for which, on purified rat nNOS (compared with 19), the “better affinity than 19 with rnNOS” value is on record as 3 fold. Also, at human nNOS, the “drop in potency with hnNOS relative to 12” value is about 17 fold. The “better affinity than 19 with hnNOS” value at human nNOS (compared with 19) is on record as 3 fold.
Consider `Cc1cc(N)nc(C#CCCN(C)C)c1` [Compound 15, 6-(4-(dimethylamino)but-1-yn-1-yl)-4-methylpyridin-2-amine dihydrochloride], for which the “drop in potency with hnNOS relative to 12” value on human nNOS came to 11 fold.
In the case of `Cc1cc(N)nc(CCCCN(C)C)c1` [Compound 16, 6-(4-(dimethylamino)butyl)-4-methylpyridin-2-amine dihydrochloride], the “drop in potency with hnNOS relative to 12” value at human nNOS is listed as about 2 fold.
Consider `Cc1cc(N)nc(CCCN(C)C)c1` [Compound 12, 6-(3-(dimethylamino)propyl)-4-methylpyridin-2-amine dihydrochloride], for which the “drop in heNOS selectivity as compared to lead 9” value on human eNOS came out at 8 fold. The “Determined Pe” value in data set [1] was 2.0 10^−6 cm s^−1.
For the molecule `Cc1cc(N)nc(C#CCN2CCN(C)CC2)c1` [Compound 13, 4-methyl-6-(3-(4-methylpiperazin-1-yl)prop-1-yn-1-yl)pyridin-2-amine dihydrochloride], the “drop in potency with hnNOS relative to 12” value at human nNOS was about 73 fold.
For the molecule `CNCC#Cc1cc(C)cc(N)n1` [Compound 10, 4-methyl-6-(3-(methylamino)prop-1-yn-1-yl)pyridin-2-amine dihydrochloride], the “drop in potency with rnNOS relative to 12” value at purified rat nNOS is recorded as 3 fold.
As for `Cc1cc(N)nc(CCCN2CCC(F)(F)CC2)c1` [Compound 20, 6-(3-(4,4-difluoropiperidin-1-yl)propyl)-4-methylpyridin-2-amine dihydrochloride], in data set [1], the “Determined Pe” value is reported as 17.3 10^−6 cm s^−1.
Take `Cc1cc(N)nc(C#CCN2CCC(F)(F)CC2)c1` [Compound 19, 6-(3-(4,4-difluoropiperidin-1-yl)prop-1-yn-1-yl)-4-methylpyridin-2-amine]: on purified rat nNOS, the “drop in potency with rnNOS relative to 12” value is “about 61 fold”. The “Determined Pe” value in data set [1] was 21.1 10^−6 cm s^−1. Also, the “drop in potency with hnNOS relative to 12” value at human nNOS is listed as about 49 fold.
